The values that follow come from US20240208992A1, “MACROCYCLES AS CFTR MODULATORS” (Idorsia Pharmaceuticals Ltd, priority 2021, published 2024).

The target of the test is human F508del-CFTR (Homo sapiens, UniProt P13569, DEL508-508). Kind of test: F508del-CFTR cell surface expression (corrector activity), DiscoveRx ß-galactosidase complementation chemiluminescence assay in recombinant U2OS cell line.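 On all read-outs here: U2OS cells co-expressing ProLink-tagged F508del-CFTR and a membrane-anchored enzyme acceptor, where more surface CFTR restores β-galactosidase activity measured by chemiluminescence.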 Conditions: for EC50: EC50, F508del-CFTR cell surface expression; for Emax: U2OS.
human F508del-CFTR, sequence (P13569 with tags, fused parts or gaps DEL508-508): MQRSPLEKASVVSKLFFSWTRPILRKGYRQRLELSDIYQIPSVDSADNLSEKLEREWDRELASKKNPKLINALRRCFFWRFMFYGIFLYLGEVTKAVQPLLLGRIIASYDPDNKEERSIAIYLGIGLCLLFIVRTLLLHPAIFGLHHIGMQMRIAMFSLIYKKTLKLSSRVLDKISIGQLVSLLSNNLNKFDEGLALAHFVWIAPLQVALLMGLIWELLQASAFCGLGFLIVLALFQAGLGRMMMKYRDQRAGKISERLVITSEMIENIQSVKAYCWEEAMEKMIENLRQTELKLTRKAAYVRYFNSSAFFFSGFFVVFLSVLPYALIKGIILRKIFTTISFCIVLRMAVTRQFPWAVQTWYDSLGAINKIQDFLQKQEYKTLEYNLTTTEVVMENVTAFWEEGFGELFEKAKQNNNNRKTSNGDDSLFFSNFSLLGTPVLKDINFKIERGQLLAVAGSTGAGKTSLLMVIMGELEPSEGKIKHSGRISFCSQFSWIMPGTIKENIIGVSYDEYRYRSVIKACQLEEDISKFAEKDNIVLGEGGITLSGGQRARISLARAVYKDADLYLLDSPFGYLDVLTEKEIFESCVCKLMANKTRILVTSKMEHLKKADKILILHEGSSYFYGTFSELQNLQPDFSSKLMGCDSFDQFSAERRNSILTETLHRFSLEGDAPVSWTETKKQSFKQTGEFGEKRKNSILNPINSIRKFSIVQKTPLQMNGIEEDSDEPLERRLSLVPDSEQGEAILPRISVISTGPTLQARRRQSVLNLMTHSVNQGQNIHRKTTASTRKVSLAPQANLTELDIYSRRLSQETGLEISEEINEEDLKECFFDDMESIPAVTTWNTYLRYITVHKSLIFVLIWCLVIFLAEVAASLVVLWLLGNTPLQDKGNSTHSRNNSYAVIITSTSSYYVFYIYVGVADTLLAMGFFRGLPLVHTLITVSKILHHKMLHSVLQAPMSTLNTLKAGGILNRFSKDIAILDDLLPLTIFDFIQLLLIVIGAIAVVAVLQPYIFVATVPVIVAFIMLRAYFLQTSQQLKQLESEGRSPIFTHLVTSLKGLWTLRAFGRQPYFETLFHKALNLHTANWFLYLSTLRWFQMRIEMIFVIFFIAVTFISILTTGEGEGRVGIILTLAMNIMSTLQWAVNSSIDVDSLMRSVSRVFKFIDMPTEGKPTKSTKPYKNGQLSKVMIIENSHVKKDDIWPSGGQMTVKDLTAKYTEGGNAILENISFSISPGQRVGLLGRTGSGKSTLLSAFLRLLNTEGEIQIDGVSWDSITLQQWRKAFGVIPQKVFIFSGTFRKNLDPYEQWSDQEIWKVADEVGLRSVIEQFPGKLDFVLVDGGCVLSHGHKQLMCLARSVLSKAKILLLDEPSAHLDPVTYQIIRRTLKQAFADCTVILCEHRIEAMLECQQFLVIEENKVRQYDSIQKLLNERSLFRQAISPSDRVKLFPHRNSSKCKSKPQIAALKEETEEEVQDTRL
Where [1] appears, read: U2OS cells, 16h compound incubation, geomean values.
The mark [2] stands for this setting: in relation to Emax of corrector lumacaftor (=100%), arithmetic mean values.
The mark [3] stands for this setting: U2OS cells, 16h compound incubation, geomean of several measurements.
[4] abbreviates: in relation to the Emax of the corrector lumacaftor (=100%), U2OS cells, 16h compound incubation, arithmetic mean.

For the compound `COc1cc(CCNC(=O)[C@@H]2CC(=O)N(C)[C@@H](CC(C)C)C(=O)N(C)[C@@H](CC(F)(F)F)C(=O)N[C@H](Cc3ccccc3)COc3cc(C)nc(OC)c3C(=O)N2)on1` [Example 792, (3R,6S,9S,13S)-3-benzyl-9-isobutyl-16-methoxy-N-(2-(3-methoxyisoxazol-5-yl)ethyl)-7,10,18-trimethyl-5,8,11,15-tetraoxo-6-(2,2,2-trifluoroethyl)-2,3,4,5,6,7,8,9,10,11,12,13,14,15-tetradecahydropyrido[3,4-p][1]oxa[4,7,10,14]tetraazacycloheptadecine-13-carboxamide], the EC50 under setting [1] amounted to 628 nM. Moreover, the Emax under setting [2] amounted to 261%.

`CC(C)C[C@H]1C(=O)N2CCCC[C@H]2C(=O)N[C@H](Cc2ccccc2)COc2ccc3ncc(F)cc3c2C(=O)N[C@H](C(=O)NCCc2noc(C3CC3)n2)CC(=O)N1C` [Example 793, (9S,13S,19aS,22R)-22-benzyl-N-(2-(5-cyclopropyl-1,2,4-oxadiazol-3-yl)ethyl)-5-fluoro-13-isobutyl-12-methyl-7,11,14,20-tetraoxo-7,8,9,10,11,12,13,14,17,18,19,19a,20,21,22,23-hexadecahydro-16H-pyrido[2′,11:6,7][1]oxa[4,7,10,14]tetraazacycloheptadecino[16,17-f]quinoline-9-carboxamide]: the EC50 under setting [1] was determined as 235 nM. Under setting [2], the Emax was 105%.

As to `CC(C)C[C@H]1C(=O)N(C)[C@H](Cc2nc(-c3ccc(F)cn3)no2)C(=O)N[C@H](Cc2ccccc2)COc2ccc3ncc(F)cc3c2C(=O)N[C@H](C(=O)NCCc2noc(C3CC3)n2)CC(=O)N1C` [Example 794, (3S,7S,10R,13R)-13-benzyl-N-(2-(5-cyclopropyl-1,2,4-oxadiazol-3-yl)ethyl)-20-fluoro-10-((3-(5-fluoropyridin-2-yl)-1,2,4-oxadiazol-5-yl)methyl)-7-isobutyl-6,9-dimethyl-1,5,8,11-tetraoxo-1,2,3,4,5,6,7,8,9,10,11,12,13,14-tetradecahydro-[1]oxa[4,7,10,14]tetraazacycloheptadecino[16,17-f]quinoline-3-carboxamide], under setting [1], the EC50 stood at 83 nM. For the same compound, the Emax under setting [2] came to 354%.

As to `COc1cc(CCNC(=O)[C@@H]2CC(=O)N(C)[C@@H](CC(C)C)C(=O)N(C)[C@H](Cc3nc(-c4ccc(F)cn4)no3)C(=O)N[C@H](Cc3ccccc3)COc3ccc4ncc(F)cc4c3C(=O)N2)on1` [Example 795, (3S,7S,10R,13R)-13-benzyl-20-fluoro-10-((3-(5-fluoropyridin-2-yl)-1,2,4-oxadiazol-5-yl)methyl)-7-isobutyl-N-(2-(3-methoxyisoxazol-5-yl)ethyl)-6,9-dimethyl-1,5,8,11-tetraoxo-1,2,3,4,5,6,7,8,9,10,11,12,13,14-tetradecahydro-[1]oxa[4,7,10,14]tetraazacycloheptadecino[16,17-f]quinoline-3-carboxamide], under setting [1], the concentration giving a half-maximal response (EC50) worked out at 141 nM. In addition, under setting [2], the Emax turned out to be 384%.

For the compound `COc1cc(CCNC(=O)[C@@H]2CC(=O)N(C)[C@@H](CC(C)C)C(=O)N3CCCC[C@@H]3C(=O)N[C@H](Cc3ccccc3)COc3ccc4cnc(C)cc4c3C(=O)N2)on1` [Example 796, (9S,13S,19aR,22R)-22-benzyl-13-isobutyl-N-(2-(3-methoxyisoxazol-5-yl)ethyl)-5,12-dimethyl-7,11,14,20-tetraoxo-7,8,9,10,11,12,13,14,17,18,19,19a,20,21,22,23-hexadecahydro-16H-pyrido[2′,1′:6,7][1]oxa[4,7,10,14]tetraazacycloheptadecino[16,17-f]isoquinoline-9-carboxamide], the EC50 under setting [1] amounted to 156 nM. For the same compound, the Emax under setting [2] was 321%.

As for `CC(C)C[C@H]1C(=O)N(C)[C@H](C)C(=O)N[C@H](Cc2ccccc2)COc2ccc3ncc(F)cc3c2C(=O)N[C@H](C(=O)NCCc2cc(C3CC3)no2)CC(=O)N1C` [Example 797, (3S,7S,10R,13R)-13-benzyl-N-(2-(3-cyclopropylisoxazol-5-yl)ethyl)-20-fluoro-7-isobutyl-6,9,10-trimethyl-1,5,8,11-tetraoxo-1,2,3,4,5,6,7,8,9,10,11,12,13,14-tetradecahydro-[1]oxa[4,7,10,14]tetraazacycloheptadecino[16,17-f]quinoline-3-carboxamide], under setting [1], the EC50 was 399 nM. Further, the maximal effect (Emax) under setting [2] stood at 308%.

On to `CC(C)C[C@H]1C(=O)N(C)[C@H](C)C(=O)N[C@H](Cc2ccccc2)COc2ccc3ncc(F)cc3c2C(=O)N[C@H](C(=O)NCCc2cc(C3CC3)on2)CC(=O)N1C` [Example 798, (3S,7S,10R,13R)-13-benzyl-N-(2-(5-cyclopropylisoxazol-3-yl)ethyl)-20-fluoro-7-isobutyl-6,9,10-trimethyl-1,5,8,11-tetraoxo-1,2,3,4,5,6,7,8,9,10,11,12,13,14-tetradecahydro-[1]oxa[4,7,10,14]tetraazacycloheptadecino[16,17-f]quinoline-3-carboxamide], for which the concentration giving a half-maximal response (EC50) under setting [3] is 197 nM. Moreover, the Emax under setting [4] was 324%.

With `CC(C)C[C@H]1C(=O)N(C)[C@H](C)C(=O)N[C@H](Cc2ccccc2)COc2ccc3ncc(F)cc3c2C(=O)N[C@H](C(=O)NCCc2noc(C3CC3)n2)CC(=O)N1C` [Example 799, (3S,7S,10R,13R)-13-benzyl-N-(2-(5-cyclopropyl-1,2,4-oxadiazol-3-yl)ethyl)-20-fluoro-7-isobutyl-6,9,10-trimethyl-1,5,8,11-tetraoxo-1,2,3,4,5,6,7,8,9,10,11,12,13,14-tetradecahydro-[1]oxa[4,7,10,14]tetraazacycloheptadecino[16,17-f]quinoline-3-carboxamide], the EC50 under setting [3] was 258 nM. The Emax under setting [4] amounted to 335%.

With `CC(C)C[C@H]1C(=O)N(C)[C@H](C)C(=O)N[C@H](Cc2ccccc2)COc2ccc3ncc(F)cc3c2C(=O)N[C@H](C(=O)NCCc2nc(C3CC3)no2)CC(=O)N1C` [Example 800, (3S,7S,10R,13R)-13-benzyl-N-(2-(3-cyclopropyl-1,2,4-oxadiazol-5-yl)ethyl)-20-fluoro-7-isobutyl-6,9,10-trimethyl-1,5,8,11-tetraoxo-1,2,3,4,5,6,7,8,9,10,11,12,13,14-tetradecahydro-[1]oxa[4,7,10,14]tetraazacycloheptadecino[16,17-f]quinoline-3-carboxamide], the EC50 under setting [3] was 266 nM. Moreover, the Emax under setting [4] was found to be 352%.

Take `CC(C)C[C@H]1C(=O)N(C)[C@H](CC(F)F)C(=O)N[C@H](Cc2ccccc2)COc2ccc3ncc(F)cc3c2C(=O)N[C@H](C(=O)NCCc2noc(C3CC3)n2)CC(=O)N1C` [Example 801, (3S,7S,10R,13R)-13-benzyl-N-(2-(5-cyclopropyl-1,2,4-oxadiazol-3-yl)ethyl)-10-(2,2-difluoroethyl)-20-fluoro-7-isobutyl-6,9-dimethyl-1,5,8,11-tetraoxo-1,2,3,4,5,6,7,8,9,10,11,12,13,14-tetradecahydro-[1]oxa[4,7,10,14]tetraazacycloheptadecino[16,17-f]quinoline-3-carboxamide]: the EC50 under setting [3] was 149 nM. Under setting [4], the Emax was 330%.
